Test results as given in the supplement of paper PMC10307832.

Columns and labels:
Assay in all cases: relative viability (nuclei count vs DMSO), 5 days (fraction); higher = more cells survive
[1] = compound: Cn1nnc2c(C(N)=O)ncn2c1=O [Temozolomide] + Nc1ncn([C@H]2C[C@H](O)[C@@H](CO)O2)c(=O)n1 [Decitabine] (partner 2 µM)
Method in brief: (§1)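 Each reported value is a median over duplicate plates. It expresses relative viability: treated-well nuclei count divided by vehicle-well nuclei count. Lung cancer cell lines in 1536-well plates were dosed by pin tool a day after seeding, alone with one drug or with a fixed anchor-drug dose plus five library-drug doses (not always all listed) in √10 steps, and nuclei were counted after 5 days.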

[2] = compound: Cn1nnc2c(C(N)=O)ncn2c1=O [Temozolomide] + C[C@@H](Oc1cc(-c2cnn(C3CCNCC3)c2)cnc1N)c1c(Cl)ccc(F)c1Cl [Crizotinib] (partner 1 µM)
Method in brief: as §1

Temozolomide + Olaparib = compound: Cn1nnc2c(C(N)=O)ncn2c1=O [Temozolomide] + O=C(c1cc(Cc2n[nH]c(=O)c3ccccc23)ccc1F)N1CCN(C(=O)C2CC2)CC1 [Olaparib] (partner 8 µM)
Method in brief: as §1

AZD5582 + Lapatinib = compound: C[C@@H](C(=O)N[C@@H](C1CCCCC1)C(=O)N2CCC[C@H]2C(=O)N[C@@H]3[C@@H](CC4=CC=CC=C34)OCC#CC#CCO[C@@H]5CC6=CC=CC=C6[C@@H]5NC(=O)[C@@H]7CCCN7C(=O)[C@H](C8CCCCC8)NC(=O)[C@H](C)NC)NC [AZD5582] + CS(=O)(=O)CCNCc1ccc(-c2ccc3ncnc(Nc4ccc(OCc5cccc(F)c5)c(Cl)c4)c3c2)o1 [Lapatinib] (partner 2 µM)
Method in brief: as §1

Row | Cell Line | relative viability ([1]; first compound 0.2 µM) | relative viability ([1]; first compound 0.6325 µM) | relative viability ([1]; first compound 2 µM) | relative viability ([1]; first compound 6.325 µM) | relative viability ([1]; first compound 20 µM) | relative viability ([2]; first compound 0.2 µM) | relative viability ([2]; first compound 0.6325 µM) | relative viability ([2]; first compound 2 µM) | relative viability ([2]; first compound 6.325 µM) | relative viability ([2]; first compound 20 µM) | relative viability (Temozolomide + Olaparib; first compound 0.2 µM) | relative viability (Temozolomide + Olaparib; first compound 0.6325 µM) | relative viability (Temozolomide + Olaparib; first compound 2 µM) | relative viability (Temozolomide + Olaparib; first compound 6.325 µM) | relative viability (Temozolomide + Olaparib; first compound 20 µM) | relative viability (AZD5582 + Lapatinib; first compound 0.001581 µM) | relative viability (AZD5582 + Lapatinib; first compound 0.005 µM) | relative viability (AZD5582 + Lapatinib; first compound 0.01581 µM) | relative viability (AZD5582 + Lapatinib; first compound 0.05 µM)
1 | HCC-15 | 0.738 | 0.633 | 0.588 | 0.617 | 0.798 | 0.872 | 0.918 | 0.807 | 0.805 | 0.905 | 0.791 | 0.767 | 0.684 | 0.637 | 0.589 | 0.644 | 0.734 | 0.521 | 0.655
2 | NCI-H3122 | 0.438 | 0.484 | 0.611 | 0.478 | 0.378 | 0.291 | 0.281 | 0.324 | 0.264 | 0.235 | 0.631 | 0.533 | 0.654 | 0.51 | 0.334 | 0.966 | 1.1 | 1.05 | 0.413
3 | NCI-H838 | 0.493 | 0.495 | 0.462 | 0.439 | 0.475 | 0.876 | 0.888 | 0.894 | 0.808 | 0.869 | 0.785 | 0.776 | 0.818 | 0.719 | 0.687 | 0.823 | 0.964 | 0.746 | 0.979
4 | NCI-H1975 | 0.401 | 0.42 | 0.399 | 0.372 | 0.355 | 1.02 | 0.948 | 1.06 | 0.92 | 0.956 | 0.779 | 0.77 | 0.798 | 0.744 | 0.699 | 1.01 | 1.21 | 0.836 | 1.2
5 | NCI-H441 | 0.255 | 0.279 | 0.226 | 0.278 | 0.254 | 0.717 | 0.824 | 0.775 | 0.766 | 0.78 | 0.7 | 0.569 | 0.603 | 0.527 | 0.337 | – | – | – | –
6 | NCI-H23 | 0.303 | 0.309 | 0.293 | 0.292 | 0.327 | 0.464 | 0.528 | 0.509 | 0.432 | 0.547 | 0.345 | 0.32 | 0.382 | 0.266 | 0.22 | 0.664 | 0.951 | 0.783 | 0.652
7 | HARA | 0.677 | 0.607 | 0.594 | 0.523 | 0.489 | 1.04 | 1.05 | 1.15 | 1.01 | 0.949 | 0.9 | 1.19 | 0.844 | 1.01 | 0.444 | 0.789 | 0.943 | 0.756 | 0.698
8 | ABC-1 | 0.931 | 0.878 | 1.59 | 0.94 | 1.24 | 1.11 | 0.91 | 1.14 | 1.17 | 1.34 | 0.921 | 0.673 | 1.09 | 0.85 | 0.696 | 0.932 | 1.19 | 1.01 | 1.44
9 | NCI-H1563 | – | – | – | – | – | 0.911 | 0.853 | 0.965 | 0.847 | 0.729 | – | – | – | – | – | 0.909 | 1.15 | 0.788 | 1.64
10 | LOU-NH91 | 0.699 | 0.801 | 0.849 | 0.815 | 0.634 | 0.557 | 0.758 | 0.75 | 0.704 | 0.532 | 0.8 | 0.936 | 0.913 | 0.863 | 0.547 | 0.815 | 0.817 | 0.794 | 0.797
11 | NCI-H522 | 0.591 | 0.623 | 0.747 | 0.608 | 0.59 | – | – | – | – | – | 0.64 | 0.543 | 0.762 | 0.574 | 0.469 | – | – | – | –
12 | EBC-1 | – | – | – | – | – | 0.167 | 0.2 | 0.229 | 0.208 | 0.194 | 0.765 | 0.663 | 0.795 | 0.666 | 0.5 | 0.187 | 0.226 | 0.193 | 0.255
13 | ChaGo-K-1 | 0.521 | 0.524 | 0.529 | 0.54 | 0.507 | 1.3 | 1.16 | 1.15 | 0.646 | 1.12 | 0.437 | 0.417 | 0.4 | 0.315 | 0.228 | – | – | – | –
14 | NCI-H1648 | – | 0.469 | 0.459 | 0.336 | 0.37 | – | – | – | – | – | – | 1.09 | 0.654 | 0.826 | 0.468 | – | – | – | –
15 | NCI-H1299 | – | – | – | – | – | 1.02 | 0.934 | 0.988 | 0.989 | 0.975 | 1 | 0.99 | 0.957 | 0.923 | 0.967 | 0.846 | 0.883 | 0.971 | 0.812
16 | SW 900 | 0.428 | 0.427 | 0.453 | 0.511 | 0.427 | – | – | – | – | – | 1.02 | 1.05 | 0.871 | 0.946 | 0.776 | – | – | – | –
17 | LCLC-103H | 0.779 | 0.757 | 0.743 | 0.764 | 0.599 | 1.03 | 1.04 | 1.08 | 1.05 | 1.05 | 0.82 | 0.79 | 0.85 | 0.731 | 0.617 | – | – | – | –
18 | NCI-H2342 | 0.737 | 0.771 | 0.666 | 0.676 | 0.803 | – | – | – | – | – | 0.344 | 0.411 | 0.454 | 0.386 | 0.36 | – | – | – | –
19 | Calu-6 | – | – | – | – | – | 0.997 | 0.83 | 0.904 | 0.817 | 0.767 | 0.787 | 0.603 | 0.6 | 0.484 | 0.259 | 0.626 | 0.662 | 1.14 | 0.568
20 | IA-LM | – | – | – | – | – | 1.27 | 0.719 | 1.09 | 0.706 | 0.962 | 0.908 | 0.744 | 0.86 | 0.759 | 0.694 | 0.623 | 0.725 | 0.809 | 0.584
21 | NCI-H1395 | 0.707 | 0.716 | 0.849 | 0.657 | 0.717 | – | – | – | – | – | 0.439 | 0.441 | 0.51 | 0.354 | 0.385 | 1.08 | 1.07 | – | 1.13
